Key:
Rhesus monkeys = test: Spontaneous recovery from NMB (twitch 5% to 95% of baseline) after bolus or infusion in Rhesus monkeys under isoflurane; assay type: in vivo, Rhesus monkey; conditions: for 5%-95% Interval: mean ± SD
Procedure: Rhesus monkeys under isoflurane anesthesia were administered a bolus dose of either RP2000 or RP1000 at a dose equal to 1× to 10× the ED95 in Rhesus monkeys of the administered compound (ED95,Rp1000=0.040 mg/kg; ED95,RP2000=0.053 mg/kg). Twitch (0.15 Hz) and TOF (2 Hz×2 seconds) were recorded throughout the 6 -10 hours experiments. Time to spontaneous recovery after bolus administration, characterized by recovery of twitch from 5% to 95% of baseline was measured.
Separately, continuous infusions of 20-180 minutes duration were given (to separate subjects), and after discontinuation of infusion, time to spontaneous recovery of NMB, characterized by recovery of twitch from 5% to 95% of baseline was measured.

[1] = Predicted spontaneous recovery after RP2000 in patients under inhaled anesthesia; assay type: in vivo, human; conditions: doses up to 2.5-3× the ED95
From the text: While not wishing to be bound by theory, it is believed that the highly reproducible half-life is due to degradation of RP1000 through cysteine adduction (e.g., by reaction with glutathione). The advantages imparted by the understanding of the pharmacodynamics of RP1000 include, but are not limited to, that the level of recovery of function may be easily predicted in human patients. […] This disclosure therefore reflects this prediction.

In the case of `COc1ccc(C[C@@H]2c3cc(OC)c(OC)cc3CC[N@@+]2(C)CCCOC(=O)/C=C/C(=O)OCCC[N+]2(Cc3ccc(OC)c(OC)c3)CCOCC2)cc1.[Cl-].[Cl-]` [RP2000, 4-(3-(((E)-4-(3-((1R)-6,7-dimethoxy-1-(4-methoxybenzyl)-2-methyl-1,2,3 4-tetrahydro-2-isoquinolin-2-ium-2-yl)propoxy)-4-oxobut-2-enoyl)oxy)propyl)-4-(3,4-dimethoxybenzyl)morpholin-4-ium], the “ED95 in Rhesus monkeys” value (Rhesus monkeys; Rhesus monkeys, isoflurane anesthesia) is reported as 0.053 mg/kg, the “5%-95% Interval” value (Rhesus monkeys; after continuous infusion of 20-180 minutes) is reported as 6.2 ± 1.4 min and the “5%-95% Interval” value (Rhesus monkeys; bolus dose 0.10 mg/kg) is reported as 6.1 ± 1.6 min. The “5%-95% Interval” value (Rhesus monkeys; bolus dose 0.20 mg/kg) was 6.4 ± 1.9 min, the “5%-95% Interval” value (Rhesus monkeys; bolus dose 0.50 mg/kg) was 6.7 ± 2.4 min and the “predictability of spontaneous recovery” value [1] was “highly predictable”.

— patent US20230381192A1, “METHODS FOR CONTROLLING AND PREDICTING RECOVERY AFTER NMBA ADMINISTRATION” (Cornell University, priority 2020, published 2023)
